# Values quoted from earlier work, collected in patent US8648119B2, “Controlled release immunomodulator compositions and methods for the treatment of otic disorders” (Otonomy, Inc., priority 2008, dated 2014).
# Assays:
# [1] = tested on: TNF expressing cells; conditions: in vitro, in the presence of complement
# [2] = tested on: patients
# [3] = target: T1, lymphotoxin (TNF-β (Homo sapiens, UniProt P01374))
# T1 sequence (P01374 35-205): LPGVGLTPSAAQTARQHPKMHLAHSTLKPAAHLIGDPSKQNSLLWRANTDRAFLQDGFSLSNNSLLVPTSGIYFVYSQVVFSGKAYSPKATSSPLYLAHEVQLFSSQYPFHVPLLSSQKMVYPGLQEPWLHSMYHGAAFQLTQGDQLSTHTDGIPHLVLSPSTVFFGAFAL
# [4] = tested on: Langerhans' cells or dermal connective tissue; conditions: in vivo
# [5] = tested on: patients; conditions: three phase-III clinical trials
# [6] = tested on: TNF-α production in the LPS-induced MonoMac-6 cells; conditions: read-out: IC50 for inhibiting TNF-α production
# [7] = in vivo
# [8] = target: TACE (Homo sapiens, UniProt P78536)
# Chain of TACE (P78536 215-824): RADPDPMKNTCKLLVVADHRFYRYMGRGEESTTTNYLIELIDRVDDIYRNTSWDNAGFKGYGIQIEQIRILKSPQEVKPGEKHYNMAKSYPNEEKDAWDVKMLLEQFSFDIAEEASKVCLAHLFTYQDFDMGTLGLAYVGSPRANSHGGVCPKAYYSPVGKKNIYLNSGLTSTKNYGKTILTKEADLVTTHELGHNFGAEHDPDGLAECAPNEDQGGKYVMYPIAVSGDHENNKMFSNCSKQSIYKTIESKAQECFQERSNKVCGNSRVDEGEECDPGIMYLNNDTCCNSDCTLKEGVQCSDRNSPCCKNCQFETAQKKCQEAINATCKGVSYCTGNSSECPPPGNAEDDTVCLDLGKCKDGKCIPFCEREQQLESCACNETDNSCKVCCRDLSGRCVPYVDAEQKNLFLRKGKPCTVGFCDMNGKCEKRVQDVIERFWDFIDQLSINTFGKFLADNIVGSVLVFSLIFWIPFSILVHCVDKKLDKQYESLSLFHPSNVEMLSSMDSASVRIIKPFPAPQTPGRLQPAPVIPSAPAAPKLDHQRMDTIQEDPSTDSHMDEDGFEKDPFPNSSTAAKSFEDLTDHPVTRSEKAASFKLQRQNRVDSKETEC
# [9] = tested on: LPS-challenged mice
# [10] = tested on: Meniere's disease; conditions: infusion into the scala tympani
# [11] = tested on: rat arthritis model; conditions: 30 mg/kg
# [12] = tested on: TNF-α production in the LPS-induced human PBMC cells; conditions: read-out: IC50 for inhibiting TNF-α production
# [13] = tested on: mouse collagen-induced arthritis model; conditions: 30 mg/kg dose
compound,measurement,setting,value
Adalimumab,lysis of TNF expressing cells,[1],lyses TNF expressing cells in vitro
same,"patients developing injection site reactions (erythema and/or itching, hemorrhage, pain and/or swelling)",[2]; systemic administration,20%
same,binding or inactivation of lymphotoxin (TNF-β),[3],does not bind or inactivate lymphotoxin
"C=CC[C@@H]1/C=C(\C)C[C@H](C)C[C@H](OC)[C@H]2O[C@@](O)(C(=O)C(=O)N3CCCC[C@H]3C(=O)O[C@H](/C(C)=C/[C@@H]3CC[C@@H](O)[C@H](OC)C3)[C@H](C)[C@@H](O)CC1=O)[C@H](C)C[C@@H]2OC (relative stereo) [tacrolimus, [3S-[3R*[E(1S*,3S*,4S*)], 4S*,5R*,8S*,9E,12R*,14R*,15S*,16R*,18S*,19S*,26aR*]]-5,6,8,11,12,13,14,15,16,17,18,19,24,25,26,26a-hexadecahydro-5,19-dihydroxy-3-[2-(4-hydroxy-3-methoxycyclohexyl)-1-methylethenyl]-14,16-dimethoxy-4,10,12,18-tetramethyl-8-(2-propenyl)-15,19-epoxy-3H-pyrido[2,1-39c][1,4]oxaazacyclotricosine-1,7,20,21 (4H,23H)-tetrone monohydrate]",atrophy of the skin,[4],do not cause atrophy of the skin
same,suppression of Langerhans' cells or dermal connective tissue,[4],do not suppress Langerhans' cells or dermal connective tissue
same,bioavailability after topical application,,less than 0.5%
same,systemic exposure after topical application,,"very little, if any, systemic exposure"
"onercept: a soluble TNF p55 receptor, TNF binding factor (Serono)",adverse outcome reported in phase-III clinical trials,[5],patients diagnosed with fatal sepsis
"CC[C@@H]1/C=C(\C)C[C@H](C)C[C@H](OC)[C@H]2O[C@@](O)(C(=O)C(=O)N3CCCC[C@H]3C(=O)O[C@H](/C(C)=C/[C@@H]3CC[C@H](Cl)[C@H](OC)C3)[C@H](C)[C@@H](O)CC1=O)[C@H](C)C[C@@H]2OC [pimecrolimus, (1R,9S,12S,13R,14S,17R,18E,21S,23S,24R,25S,27R)-12-[(1E)-2-{(1R,3R,4S)-4-chloro-3-methoxycyclohexyl}-1-methylvinyl]-17-ethyl-1,14-dihydroxy-23,25-dimethoxy-13,19,21,27-tetramethyl-11,28-dioxa-4-aza-tricyclo[22.3.1.04,9]octacos-18-ene-2,3,10,16-tetraone]",atrophy of the skin,[4],do not cause atrophy of the skin
same,suppression of Langerhans' cells or dermal connective tissue,[4],do not suppress Langerhans' cells or dermal connective tissue
same,systemic exposure after topical application,,"very little, if any, systemic exposure"
etanercept,"patients experiencing injection site reactions (mild to moderate erythema and/or itching, pain and/or swelling)",[2]; systemically treated,over one-third of patients
CC(C)C[C@@H](C(=O)N[C@@H](CCCN/C(N)=N/[N+](=O)[O-])C(=O)Nc1nccs1)[C@H](C(C)C)N(O)C=O [Nitroarginine analog A],IC50,[6],34 nM
same,oral activity,[7],lacks oral activity
same,IC50,[8],4 nM
O=C(Nc1cc(Cl)cc2c1[nH]c1cnccc12)c1cccnc1 [PS-1145],production of TNF-α,[9],reduces the production of TNF-α
Cc1ccccc1C(=O)Nc1ccc(C(=O)N2CCCC(N(C)C)c3ccccc32)cc1 (centres unmarked) [OPC-31260],Meniere's disease symptoms,[10],marked reduction of Meniere's disease symptoms
COc1cccc2nc(-c3cccs3)nc(NN3C(=O)C=C(C)C3=O)c12 [SPC-839],paw edema,[11],reduces paw edema
CC[C@H](C)[C@H](NC(=O)[C@H](CC(C)C)[C@H](C(C)C)N(O)C=O)C(=O)Nc1ccccn1 [GW3333],IC50,[12],970 nM
Cc1ccc2nc(NCCN)c3ncc(C)n3c2c1 [BMS-345541],severity of disease,[13],significantly reduced the severity of disease
